According to ChEMBL document CHEMBL1201862, “PubChem BioAssay data set” (2004):
Active and inactive are the calls of the source.

What was measured:
[1] = alpha-synuclein stem-loop luciferase translation blockers – H4 neuroglioma cells, luminescence, confirmation (AID 1988); format: functional, cell-based
[2] = biological target: T1, Replicative DNA helicase DnaB (Mycobacterium tuberculosis, UniProt P9WMR3); experiment: DnaB intein splicing inhibitors, dose response, biochemical, cell-free fluorescence (AID 449749); format: functional
T1 sequence (P9WMR3 whole entry): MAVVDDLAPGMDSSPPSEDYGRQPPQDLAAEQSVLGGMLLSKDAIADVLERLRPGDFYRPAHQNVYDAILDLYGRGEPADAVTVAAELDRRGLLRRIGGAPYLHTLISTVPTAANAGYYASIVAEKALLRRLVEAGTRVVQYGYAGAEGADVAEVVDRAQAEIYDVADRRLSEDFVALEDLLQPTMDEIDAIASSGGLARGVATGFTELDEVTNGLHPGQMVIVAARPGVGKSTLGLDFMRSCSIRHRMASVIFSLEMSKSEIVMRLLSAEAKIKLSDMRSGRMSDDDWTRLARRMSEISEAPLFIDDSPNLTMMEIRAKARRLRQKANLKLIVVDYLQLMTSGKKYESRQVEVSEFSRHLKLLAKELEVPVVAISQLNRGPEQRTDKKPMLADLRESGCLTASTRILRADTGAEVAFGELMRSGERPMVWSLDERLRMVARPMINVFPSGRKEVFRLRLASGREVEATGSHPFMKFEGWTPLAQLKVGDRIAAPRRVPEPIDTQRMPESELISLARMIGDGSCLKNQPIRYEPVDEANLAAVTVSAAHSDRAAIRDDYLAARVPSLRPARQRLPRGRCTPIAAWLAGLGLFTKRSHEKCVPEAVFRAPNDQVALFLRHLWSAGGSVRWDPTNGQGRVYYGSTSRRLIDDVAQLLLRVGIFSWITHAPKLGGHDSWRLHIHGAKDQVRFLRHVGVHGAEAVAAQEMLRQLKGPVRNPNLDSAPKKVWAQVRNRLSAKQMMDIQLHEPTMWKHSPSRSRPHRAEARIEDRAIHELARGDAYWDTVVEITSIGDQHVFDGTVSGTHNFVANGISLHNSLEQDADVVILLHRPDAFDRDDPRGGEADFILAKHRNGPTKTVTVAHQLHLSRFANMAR

Protein RecA = biological target: T2, Protein RecA (Mycobacterium tuberculosis, UniProt P9WHJ3); experiment: Fluorescence Cell-Free Homogeneous Dose Retest to Identify Inhibitors of RecA-Intein Splicing Activity. [Related pubchem assays (depositor defined):AID2097, AID2223, AID489010, AID492950]; format: functional
T2 sequence (P9WHJ3 whole entry): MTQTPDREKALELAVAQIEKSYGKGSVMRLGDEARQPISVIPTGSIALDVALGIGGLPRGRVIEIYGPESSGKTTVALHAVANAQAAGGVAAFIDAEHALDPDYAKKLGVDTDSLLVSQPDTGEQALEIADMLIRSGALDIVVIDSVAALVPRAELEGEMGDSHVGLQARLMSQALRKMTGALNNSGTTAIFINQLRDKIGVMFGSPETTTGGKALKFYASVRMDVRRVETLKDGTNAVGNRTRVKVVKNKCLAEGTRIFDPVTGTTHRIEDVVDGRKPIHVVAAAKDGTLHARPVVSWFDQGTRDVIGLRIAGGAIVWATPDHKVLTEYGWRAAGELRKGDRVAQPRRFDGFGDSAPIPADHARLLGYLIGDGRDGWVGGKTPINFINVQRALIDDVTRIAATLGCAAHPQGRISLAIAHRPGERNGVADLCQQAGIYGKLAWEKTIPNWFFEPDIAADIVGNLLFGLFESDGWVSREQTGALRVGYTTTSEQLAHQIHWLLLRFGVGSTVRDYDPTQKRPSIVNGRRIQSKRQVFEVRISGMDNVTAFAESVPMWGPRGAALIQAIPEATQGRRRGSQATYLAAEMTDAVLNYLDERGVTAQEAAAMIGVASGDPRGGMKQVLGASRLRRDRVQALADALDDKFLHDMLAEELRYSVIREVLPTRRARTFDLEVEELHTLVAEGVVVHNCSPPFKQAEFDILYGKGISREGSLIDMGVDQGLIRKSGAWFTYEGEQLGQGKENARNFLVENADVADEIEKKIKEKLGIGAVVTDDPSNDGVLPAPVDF

[3] = test system: Streptococcus sp. 'group A'; experiment: Streptococcus pyogenes SK(-)GAS viability under kanamycin – luminescence, BacTiterGlo, confirmation, counter-screen for streptokinase expression inhibitor project, dose response (AID 1900); format: functional, organism-based
Streptokinase A = biological target: T3, Streptokinase A (Streptococcus pyogenes serotype M1, UniProt P10520); experiment: viability-normalized secreted streptokinase activity reduction – plasminogen activation absorbance, OD405, dose response (AID 1914); format: functional, Streptococcus pyogenes M1 GAS;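 note: secreted streptokinase activity via plasminogen activation per viability signal from cell pellet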
T3 sequence (P10520 whole entry): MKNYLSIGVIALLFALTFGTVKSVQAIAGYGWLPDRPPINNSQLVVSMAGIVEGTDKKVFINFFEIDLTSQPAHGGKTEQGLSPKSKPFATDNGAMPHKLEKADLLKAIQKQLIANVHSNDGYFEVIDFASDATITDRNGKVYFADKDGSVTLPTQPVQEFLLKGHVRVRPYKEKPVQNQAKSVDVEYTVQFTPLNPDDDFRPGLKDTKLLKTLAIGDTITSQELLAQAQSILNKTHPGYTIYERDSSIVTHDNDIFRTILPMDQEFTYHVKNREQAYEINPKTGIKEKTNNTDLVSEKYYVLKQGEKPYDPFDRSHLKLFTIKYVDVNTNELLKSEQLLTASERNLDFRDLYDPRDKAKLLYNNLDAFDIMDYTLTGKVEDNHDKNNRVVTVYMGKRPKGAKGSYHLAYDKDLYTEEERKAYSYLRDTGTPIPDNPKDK

Streptococcus = experiment: GAS UMAA2166 growth inhibition – luminescence, BacTiterGlo, counter-screen for streptokinase expression inhibitor project, dose response (AID 1915); format: functional, organism-based;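 note: potency for reduction of bacterial viability or growth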
[4] = Trypanosoma cruzi growth suppression in host cells – NIH3T3 host cells, beta-gal luminescence, confirmation (AID 2044); format: functional, cell-based;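 note: intracellular parasites grown in NIH/3T3 mouse fibroblasts as host cells; luminescent beta-galactosidase reporter signal from transgenic T. cruzi replicating inside host cells; inhibitors lower the luminescence signal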
[5] = NIH3T3 cell viability loss – ATP luminescence, mouse fibroblasts, counter-screen, dose response (AID 2010); format: functional, cell-based;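 note: cells exposed to compound for about 90 hours before reading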
Cytochrome P450 2C19 = Cytochrome P450 2C19 (Homo sapiens, UniProt P33261); experiment: Cytochrome panel assay with activity outcomes. Panel member name: p450-cyp2c19 Compounds with AC50 equal or less than 10 uM are considered active; format: functional
Sequence of Cytochrome P450 2C19 (P33261 whole entry): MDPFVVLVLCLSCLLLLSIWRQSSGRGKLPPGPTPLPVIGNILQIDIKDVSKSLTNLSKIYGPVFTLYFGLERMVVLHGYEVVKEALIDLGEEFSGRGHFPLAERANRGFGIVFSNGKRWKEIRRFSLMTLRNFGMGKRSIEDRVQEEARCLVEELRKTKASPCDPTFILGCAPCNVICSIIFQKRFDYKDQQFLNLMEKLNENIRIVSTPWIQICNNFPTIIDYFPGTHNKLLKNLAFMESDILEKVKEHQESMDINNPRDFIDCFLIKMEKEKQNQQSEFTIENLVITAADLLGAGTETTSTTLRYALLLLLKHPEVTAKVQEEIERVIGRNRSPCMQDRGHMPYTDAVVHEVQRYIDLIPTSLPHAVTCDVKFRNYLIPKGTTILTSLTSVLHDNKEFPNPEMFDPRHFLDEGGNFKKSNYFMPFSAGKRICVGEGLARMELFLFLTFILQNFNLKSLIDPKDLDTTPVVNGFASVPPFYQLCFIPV

[6] = NIH-3T3 fibroblast cytotoxicity, dose response, cytotoxicity control, cell-based, fluorescence, Alamar Blue, secondary assay (AID 2327); format: functional;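 note: NIH-3T3 mouse fibroblasts cultured with fluconazole at 8 µg/mL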

SMILES | AC50 [2] | EC50 (Protein RecA) | EC50 [3] | EC50 (Streptokinase A) | EC50 (Streptococcus) | other results
CC(C)COc1ccc2[nH]c3c(c2c1)CCCC3=O |  |  |  |  |  | EC50 [1]: 10.6 µM (active)
COc1ccc(C(=O)/C(=C/c2cccs2)c2nc3ccccc3o2)cc1 | > 380 µM (inactive) | > 380 µM (inactive) |  |  |  | 
COc1ccccc1Oc1cc(C#N)c(C#N)cc1-n1nnc2ccccc21 | 20.2 µM (active) | 3.77 µM (active) |  |  |  | 
CC(=O)Oc1ccc2c(=O)oc(-c3ccccc3C)nc2c1 | > 380 µM (inactive) | 37.8 µM (active) |  |  |  | 
O=C(COc1cccc(Cl)c1)Nc1ccccc1N1CCCCC1 |  |  | 21.1 µM (active) | 11.1 µM (active) | > 150 µM (not active) | 
Cc1nc2c(C)cccn2c(=O)c1NC(=O)c1ccc2c(c1)OCO2 |  |  | > 150 µM (not active) | > 150 µM (not active) | > 150 µM (not active) | 
Cc1ccsc1C(=O)N(c1nc2ccccc2s1)c1c(C)cccc1C |  |  | 16.7 µM (active) | 7.09 µM (inconclusive) | > 150 µM (not active) | 
CC(C)(C)c1ccccc1OCCCCCn1ccnc1 |  |  | 19.1 µM (active) | > 150 µM (not active) | > 150 µM (not active) | EC50 [4]: 1.32 µM (active); EC50 [5]: > 60 µM (not active)
CC(=O)NC1=NN(c2ccccc2)C(=O)C1 | 33.5 µM (active) | 5.21 µM (active) |  |  |  | AC50 (Cytochrome P450 2C19): inconclusive
CCCc1[nH][nH]c(=O)c1C(c1ccccc1)C(C#N)C#N (stereo not given) | 8.91 µM (active) | 4.19 µM (active) |  |  |  | 
Cc1ccc(CNC(=O)c2ccc(N(C)S(=O)(=O)c3ccccc3)cc2)cc1 | 53.4 µM (active) | > 380 µM (inactive) |  |  |  | 
FC(F)(F)c1cccc(Nc2nc(N3CCCC3)nc(N3CCCC3)n2)c1 |  |  | 4.06 µM (active) | 17.5 µM (inconclusive) | 9.85 µM (active) | 
O=C(Oc1ccc2ccccc2c1)c1ccco1 | 18.3 µM (active) | 13.9 µM (active) |  |  |  | 
CCOc1ccc2c(c1)c1nnc(SCC(=O)N3CCC(C)CC3)nc1n2C |  |  | 24.2 µM (active) | > 150 µM (not active) | > 150 µM (not active) | 
Cc1ccc2c(c1)C(=O)CC1(CCC(C(C)(C)C)CC1)O2 (stereo not given) |  |  | 9.31 µM (active) | 12.6 µM (active) | 14.2 µM (active) | 
O=C(NC(=S)Nc1ccc(Cl)c(C(=O)O)c1)c1cccc(COc2ccccc2)c1 |  |  | 13 µM (active) | > 150 µM (not active) | > 150 µM (not active) | 
Cc1cc(C)cc(S(=O)(=O)c2cnc3ccccc3n2)c1 | 20.2 µM (active) | 4.26 µM (active) |  |  |  | 
Clc1ccc(-c2c[n+](Cc3ccc(Br)cc3)c3n2CCCCC3)cc1 |  |  |  |  |  | EC50 [6]: > 150 µM (inconclusive)
CCCCCCCCCCC(=O)NNC(=O)c1c(O)c2ccccc2n(CC)c1=O |  |  | 0.337 µM (active) | > 150 µM (not active) | 4.38 µM (active) | 

SMILES | AC50 [2] | EC50 (Protein RecA) | EC50 [3] | EC50 (Streptokinase A) | EC50 (Streptococcus) | other results
O=C(CSC(=S)N1CCCCC1)Nc1nc(-c2ccccc2)c(-c2ccccc2)o1 |  |  | 1.51 µM (active) | > 150 µM (not active) | > 150 µM (not active) | 
CCOCC(=O)NCc1ccc2c(c1)cc(C)n2C | > 380 µM (inactive) | 23.6 µM (active) |  |  |  | 
COC(=O)CN1C(=O)C2(C(C#N)=C(N)Oc3c2c(C)nn3-c2ccccc2)c2ccccc21 (stereo not given) | 7.38 µM (active) | 3.38 µM (active) |  |  |  | 
CCOC(=O)c1cnc(-n2nc(C)cc2C)nc1N(CC)CC |  |  | 25.3 µM (active) | > 150 µM (not active) | > 150 µM (not active) | 
COc1ccc(-c2coc3c(C)c4oc(=O)c(CCC(=O)O)c(C)c4cc23)cc1 |  |  | 3.74 µM (active) | > 150 µM (not active) | 15.4 µM (active) | 
CC1=NNC(=O)C1C(c1ccccc1)C1C(=O)NN=C1C (stereo not given) | 0.383 µM (active) | 0.194 µM (active) |  |  |  | 
CC(=O)N(c1ccccc1)C(C)c1nc(C#N)c(C#N)nc1C (stereo not given) | 24.5 µM (active) | 4.35 µM (active) |  |  |  | 
COc1ccc(N2CCN(C(=O)c3ccc(Oc4ccc(C(F)(F)F)cn4)cc3)CC2)cc1 | 121 µM (active) | > 380 µM (inactive) |  |  |  | 
COC(=O)Cc1n[nH]c2c1C1(CCSCC1)C(C#N)=C(N)O2 | 10.8 µM (active) | 1.99 µM (active) |  |  |  | 
Oc1cccc(/C=N/c2cccc3ccccc23)c1O | 3.04 µM (active) | 10.1 µM (active) |  |  |  | 
COC(=O)Cc1cc(=O)n(-c2ccccc2)[nH]1 | 17.6 µM (active) | 14 µM (active) |  |  |  | 
C/C(=N\NC(=O)Cc1cc(O)[nH]n1)c1cccc([N+](=O)[O-])c1 | 2.73 µM (active) | 1.31 µM (active) |  |  |  | 
CO/C(O)=C1/C(C)=NC(=S)NC1c1ccc(OC(=O)c2ccco2)cc1 (stereo not given) | 33.1 µM (active) | 14.4 µM (active) |  |  |  | 
CC(=O)Oc1ccc(/C=N/NS(=O)(=O)c2ccccc2)cc1 |  |  | > 150 µM (not active) | > 150 µM (not active) | > 150 µM (not active) | 
Cc1cc(Br)c(OCc2ccc(C(=O)N/N=C3\CC4CC=CC34)cc2)c(Br)c1 (stereo not given) |  |  | 4.08 µM (active) | > 150 µM (not active) | 44.5 µM (active) | 
CC(=N)/C(C#N)=C(/O)CSc1nc2cc(Cl)ccc2c(=O)n1Cc1ccco1 |  |  | 11.8 µM (active) | > 150 µM (not active) | 16.2 µM (active) | EC50 [4]: 3.43 µM (active); EC50 [5]: > 60 µM (inconclusive)
C/C(=N\NC(=O)c1ccc(Cl)c(Cl)c1)c1ccc(Br)s1 |  |  | 2.12 µM (active) | > 150 µM (not active) | 14.7 µM (active) | EC50 [4]: 0.597 µM (active); EC50 [5]: 8.11 µM (active)
COc1ccc(/C(=N/OC(C)=O)c2nccc3cc(OC)c(OC)cc23)cc1OC | > 380 µM (inactive) | 36.3 µM (active) |  |  |  | 
